In ChEMBL document CHEMBL5257025, “Artemisinin-Derived Dimers: Potent Antimalarial and Anticancer Agents” (J Med Chem, 2016):

Tested on: Plasmodium berghei
Assay: In vivo antimalarial activity against Plasmodium berghei infected mouse model assessed as survival time at 8 mg/kg, po in presence of Mefloquine hydrochloride

Q: Which survival time does the source give for CO[C@H]1O[C@@H]2O[C@@]3(C)CC[C@H]4[C@H](C)CC[C@@H]([C@H]1C)[C@@]24OO3 here?
A: Its survival time is 23 days.
